Here are results for 22 compounds from patent US5478825A, “5-(substituted amino)-1,2,4-triazolo (1,5-A) pyrimidine derivatives” (Egis Gyogyszergyar, priority 1991, dated 1995).

Like-named read-outs stand apart in the source and are kept apart here.

Assay [1] concerns carrageen oedema. As to the kind of experiment: Antiinflammatory (Carrageen oedema inhibiting) effect. It counts as in vivo. The protocol:
4. Antiinflammatory (Carrageen oedema inhibiting) effect
The experiments were carried out by the method of Winter et al. [Winter, C. A. et al.: Proc. Soc. […] 0.1 ml of a 1 per cent carrageen suspension was injected subcutaneously into the plantar region of one of the hind paws. Rats were fasted for 12 hours and received drinking water ad libitum. One hour before treatment with the test compound the animals were hydrated orally with 30 ml/kg of tap water. The test compounds or the vehicle were administered p.o. in a volume of 10 ml/kg, then one hour later carrageen was applied. The volume of the treated paw was measured by a plethysmometer before and 3 hours after injection in such a way that displacement of the liquid arising from the volume alteration was indicated on a millimeter scale. The volume of the treated paws were compared with those of the control group.

The test system of assay [2] is right atrium. The assay is described as follows: Positive inotropic effect in guinea pig (isolated right atrium). As to conditions: for Frequency: percentage change of atrial frequency; for Concentration force dP/dt: percentage change, 2 Hz, 37° C., concentration not given. The protocol:
2. Positive inotropic effect in guinea pig
The experiments were carried out by the method of Alousi [Alousi, A. A. et al.: J. Cardiovasc. […] Animals weighing 400-600 g were stunned with a blow to the head and exsanguinated. The heart was excised and the right atrium was removed and placed into a modified Tyrode solution of 37° C. It was then preloaded with 2.1 g and stimulated electrically at a rate of 2 Hz by rectangular pulses 0.5 ms in duration. The first derivative by time of the contraction force of the isolated organ (dP/dt) and the atrial frequency were recorded by a polygraph. From the data thus obtained percentage changes were calculated.

In assay [3] the test system is anaesthetized cat, left ventricular pressure (dP/dtmax). The assay is described as follows: Positive inotropic effect in anaesthetized cat. To be noted: Felis catus, iv; for change in vivo at 1 mg/kg: 1 mg/kg i.v.; for change in vivo at 5 mg/kg: 5 mg/kg i.v.; for change in vivo at 10 mg/kg: 10 mg/kg i.v. It counts as in vivo. The protocol: 1. Positive inotropic effect in anaesthetized cat
The experiments were carried out on male and female cats anaesthetized with chloralose-urethane (40/300 mg/kg i.p. in a volume of 1 ml/kg). A polyethylene catheter was inserted into the left ventricle via the right subclavian artery. The inotropic activity was measured with the aid of the first derivative by time of the left ventricular pressure curve (dP/dtmax). The blood pressure was measured by means of another catheter introduced from the left femoral artery into the upper third part of the abdominal artery. A Statham P23Db transducer and HSE (Hugo Sachs Electronics) amplifiers were used for both pressure measurements. […] The test compounds were administered via a femoral venous cannula.

The subject of assay [4] is rats (vasopressin induced coronaria insufficiency). The assay is described as follows: Antianginal effect in rats (vasopressin induced coronaria insufficiency). It counts as in vivo. As to conditions: Rattus norvegicus, iv; i.v. 2 minutes prior to vasopressin; T wave in ECG. The protocol:
3.a) Antianginal effect in rats
Rats weighing 180-220 g were narcotized with chloralose-urethane (70/700 mg/kg i.p.). The ECG was registered with needle electrodes in standard II leading. The experimental coronaria insufficiency was induced with vasopressin (1 NE/kg i.v.). The height of T wave in ECG was measured before and after the administration of vasopressin in both the control and treated groups. Test compounds were administered intravenously 2 minutes prior to the treatment with vasopressin.

The test system of assay [5] is coronary artery. The assay is described as follows: Coronary flow test in dog. It is filed as in vivo. How it is done: 3.b) Coronary flow test in dog
The experiments were carried out in young mongrel do, of both sexes weighing 10-26 kg. The test compounds were administered in 1-5-10 mg/kg doses intravenously. […] Mean arterial blood pressure was recorded on the carotis with a Statham gauge (type: p23Db). The changes of the myocardial contractile forces were followed isometrically with a microdynamometer (type: Experimetria, SG-01) affixed to the anterior wall of the left ventricle. Data were collected on the first derivate of the myocardial contractile force to follow the changes of the contraction and relaxation speed. […] The changes of the heart rate were also followed. The conductivity of the coronary artery (the ratio of the mean coronary flow and the mean blood pressure) was calculated. The mean values were evaluated statistically using Student's test as well as regression analysis and multiple t test.

The mark [6] stands for this setting: Rattus norvegicus, po, 3 h; read-out: ID30.

In the case of `CC(=O)Oc1ccccc1C(=O)O` [Acetylsalicylic acid, reference compound], the ED30 in assay [1] (Rattus norvegicus, po, 3 h, read-out: ID30) is 62.4 mg/kg.
Regarding `CSc1nc2nc3c(c(NCCN4CCOCC4)n2n1)SCCC3` [Example 39, 2-(Methylthio)-5-[N-(2-morpholinoethyl)]amino-7,8-dihydro-9H-thiopyrano[3,2-d]-1,2,4-triazolo[1,5-a]pyrimidine], in assay [2], the Frequency was -12% and the “Concentration force dP/dt” value was 51%.
In assay [3], `Nc1cc(-c2ccncc2)c[nH]c1=O` [Amrinone, reference compound] had a change in vivo at 1 mg/kg of 19%, a change in vivo at 5 mg/kg of 53.9% and a change in vivo at 10 mg/kg of 48.3%. In addition, in assay [2], the Frequency is on record as 28% and the “Concentration force dP/dt” value was determined as 33%.
The term ED50 denotes the dose at which the effect has come halfway, by size or by number of responders. In turn, `CSc1nc2nc3c(c(NCc4ccccc4)n2n1)CCC3` [Example 6, 5-(Benzylamino)-2-(methylthio)-6,7-dihydro-8H-cyclopenta[d]-1,2,4-triazolo[1,5-a]pyrimidine] registered an ED50 in assay [4] of 1.49 mg/kg.
With `CSc1nc2nc3c(c(NCCCN4CCOCC4)n2n1)CCCC3` [Example 19, 2-(Methylthio)-5-[N-(3-morpholinopropyl)]amino-6,7,8,9-tetrahydro-1,2,4-triazolo[5,1-b]quinazoline], in assay [3], the change in vivo at 1 mg/kg came out at 35%, the change in vivo at 5 mg/kg amounted to 72.8% and the change in vivo at 10 mg/kg came out at 90.6%. Also, in assay [2], the Frequency is -2% and the “Concentration force dP/dt” value amounted to 171%.
Take `CSc1nc2nc3c(c(NCCN4CCOCC4)n2n1)CCC3` [Example 10, 2-(Methylthio)-5-[N-(2-morpholinoethyl)]amino-6,7-dihydro-8H-cyclopenta[d]-1,2,4-triazolo[1,5-a]pyrimidine]: the ED50 in assay [4] turned out to be 1.47 mg/kg. In assay [1] (setting [6]), the ED30 was 120 mg/kg.
`CSc1nc2nc3c(c(N4CCN(CCO)CC4)n2n1)CCC3` [Example 9, 5-[4-(2-Hydroxyethyl)piperazino]-2-(methylthio)-6,7-dihydro-8H-cyclopenta[d]-1,2,4-triazolo[1,5-a]pyrimidine] yielded a median effective dose (ED50) in assay [4] of about 2 mg/kg.
The same measure, in the same setting: next, `CN(C)CCCNc1c2c(nc3nc(N4CCOCC4)nn13)CCCC2` [Example 22, 5-[N-(3-Dimethylaminopropyl)]amino-2-morpholino-6,7,8,9-tetrahydro-1,2,4-triazolo[5,1-b]quinazoline]: about 2 mg/kg.
For `CSc1nc2nc3c(c(NCc4ccc(Cl)cc4)n2n1)CCC3` [Example 7, 5-(4-Chlorobenzylamino)-2-(methylthio)-6,7-dihydro-8H-cyclopenta[d]-1,2,4-triazolo[1,5-a]pyrimidine], the ED30 in assay [1] (setting [6]) stood at 200 mg/kg.
In assay [3], `CSc1nc2nc3c(c(N4CCOCC4)n2n1)CCC3` [Example 8, 2-(Methylthio)-5-morpholino-6,7-dihydro-8H-cyclopenta[d]-1,2,4-triazolo[1,5-a]pyrimidine] returned a change in vivo at 1 mg/kg of 42.8%, a change in vivo at 5 mg/kg of 76% and a change in vivo at 10 mg/kg of 86.3%. Moreover, in assay [2], the Frequency was -5% and the “Concentration force dP/dt” value is recorded as 86%.
In the case of `CCN(CC)c1c2c(nc3nc(N(C)C)nn13)CCCS2` [Example 26, 5-(Diethylamino)-2-(dimethylamino)-7,8-dihydro-9H-thiopyrano[3,2-d]-1,2,4-triazolo[1,5-a]pyrimidine], in assay [1] (setting [6]), the ED30 is 170 mg/kg.
In the case of `CSc1nc2nc3c(c(NCCN4CCOCC4)n2n1)CCCCC3` [Example 37, 2-(Methylthio)-5-[N-(2-morpholinoethyl)]amino-6,7,8,9-tetrahydro-10H-cyclohepta[d]-1,2,4-triazolo[1,5-a]pyrimidine], the “Conductivity of the coronary artery” value in assay [5] (1 mg/kg i.v.) was determined as 188%; in assay [5] (5 mg/kg i.v.), 371%; in assay [5] (10 mg/kg i.v.), 780%.
Take `CC(=O)Nc1ccc(O)cc1` [Paracetamol, reference compound]: the ED30 in assay [1] (setting [6]) is 195 mg/kg.
In assay [3], `CC(C)Sc1nc2nc3c(c(NCCCN4CCOCC4)n2n1)CCCC3` [Example 30, 2-(1-Methylethylthio)-5-[N-(3-morpholinopropyl)]amino-6,7,8,9-tetrahydro-1,2,4-triazolo[5,1-b]quinazoline] displayed a change in vivo at 1 mg/kg of 22.3%, a change in vivo at 5 mg/kg of 53.8% and a change in vivo at 10 mg/kg of 86.8%. The “Conductivity of the coronary artery” value in assay [5] (1 mg/kg i.v.) was found to be 166%. Besides, the “Conductivity of the coronary artery” value in assay [5] (5 mg/kg i.v.) is 397%. For the same compound, the “Conductivity of the coronary artery” value in assay [5] (10 mg/kg i.v.) is reported as 481%.
In turn, `CN(C)c1nc2nc3c(c(NCCCN4CCOCC4)n2n1)SCCC3` [Example 53, 2-(Dimethylamino)-5-[N-(3-morpholinopropyl)]amino7,8-dihydro-9H-thiopyrano[3,2-d]-1,2,4-triazolo[1,5-a]pyrimidine] displayed a change in vivo at 0.5 mg/kg in assay [3] (0.5 mg/kg i.v.) of 35.5%. In assay [3], this compound yielded a change in vivo at 1 mg/kg of 48%, a change in vivo at 5 mg/kg of 95% and a change in vivo at 10 mg/kg of 93.6%.
Consider `CSc1nc2nc3c(c(N4CCN(Cc5ccccc5)CC4)n2n1)CCC3` [Example 54, 5-(4-Benzylpiperazino)-2-(methylthio)-6,7-dihydro-8H-cyclopenta[d]-1,2,4-triazolo[1,5-a]pyrimidine], for which the ED30 in assay [1] (setting [6]) was 85 mg/kg.
Regarding `COc1ccc(CNc2c3c(nc4nc(SC)nn24)CCC3)cc1` [Example 50, 2-(Methylthio)-5-(4-methoxybenzylamino)-6,7-dihydro-8H-cyclopenta[d]-1,2,4-triazolo[1,5-a]pyrimidine], the ED30 in assay [1] (setting [6]) came to 190 mg/kg.
Consider `CSc1nc2nc3c(c(NCCN4CCOCC4)n2n1)CCN(Cc1ccccc1)C3` [Example 46, 8-Benzyl-2-(methylthio)-5-[N-(2-morpholinoethyl)]amino-6,7,8,9-tetrahydropyrido[3,4-d]-1,2,4-triazolo[1,5-a]pyrimidine], for which, in assay [2], the Frequency is on record as -15% and the “Concentration force dP/dt” value stood at 80%.
As for `C=CCN(CC=C)c1c2c(nc3nc(SC)nn13)CCC2` [Example 4, 5-(Diallylamino)-2-(methylthio)-6,7-dihydro-8H-cyclopenta[d]-1,2,4-triazolo[1,5-a]pyrimidine], in assay [4], the 50% effective dose (ED50) was 1.97 mg/kg.
On the same count and under the same terms, next, `CCOC(=O)CNc1c2c(nc3nc(SC)nn13)CCC2` [Example 60, Ethyl N-[2-methylthio-6,7-dihydro-8H-cyclopenta[d]-1,2,4-triazolo[1,5-a]pyrimidin-5-yl]glycinate]: about 2 mg/kg.
Consider `CCSc1nc2nc3c(c(NCCN4CCOCC4)n2n1)CCCC3` [Example 31, 2-(Ethylthio)-5-[N-(2-morpholinoethyl)]amino-6,7,8,9-tetrahydro-1,2,4-triazolo[5,1-b]quinazoline], for which, in assay [3], the change in vivo at 1 mg/kg is 46.5%, the change in vivo at 5 mg/kg was 131% and the change in vivo at 10 mg/kg was determined as 129%.
`CSc1nc2nc3c(c(NCCN4CCOCC4)n2n1)CCCCCCCCCC3` [Example 35, 2-(Methylthio)-5-[N-(2-morpholinoethyl)]amino-6,7,8,9,10,11,12,13,14,15-decahydro-cyclododeca[d]-1,2,4-triazolo[1,5-a]pyrimidine]: in assay [2], the Frequency is 8%. The “Concentration force dP/dt” value in assay [2] is reported as 79%. For the same compound, the entries for the “Conductivity of the coronary artery” value in assay [5] (1 mg/kg i.v.), in assay [5] (5 mg/kg i.v.) and in assay [5] (10 mg/kg i.v.) were 256%, 940% and 1030%, respectively.
